# Test results from US11826400B2, “Neuregulin based compositions and uses thereof for preventing, treating or delaying the myocardial ischemia-reperfusion injury” (ZENSUN (SHANGHAI) SCIENCE & TECHNOLOGY LIMITED, priority 2010, dated 2023).
# Test system: myocardial ischemia reperfusion in rat
# Test: Therapeutic effect on myocardial ischemia reperfusion in rat (coronary ligation 45 min, reperfusion 2 h, TCC staining of heart sections)
# Format: in vivo, Wistar rats
# Details: Group D
# Description: Wistar rats (male, 200˜240 g) were divided into groups and administered with different dosages of rhNRG-1, placebo or rhThymosin-β4 (as shown in Table 1) after anaesthetized with intra-abdominal injection of 20% urethane (5 ml/kg). Thirty minutes after the drug started to be given to the rats, the anterior descending limb of the left coronary artery was ligated for 45 minutes to cause partial myocardium turned white obviously in the ligation area. After that the ligation thread was loosen to keep coronary blood flow for 2 hours and then take out the heart rapidly and wash vascular fat away with normal saline, and then freeze the heart in −30° C. for one hour.
# Cut the heart parallelly from apex to base along coronary sulcus to myocardium sections with the thickness of 1 mm, and then put them into TCC dye liquor for 20 min in 37° C. in a shaker. After staining extra dye was washed immediately with water, and then the sections were put into 4% formalin for one hour. Photo and analyze the total size and the infarction size of were analyzed with Image Analysis Software. Infarction size ratio equals to the ratio of the infarction size and the total size of the myocardium section.
substance,measurement,setting,value
"rhThymosin-β4: produced by Northland (Beijing) Bio-Technology Co Ltd, batch number: 20050728; comparator drug of Group D (SDKPDMAEIEKFDKSKLKKTETQEKNPLPSKETIEQEKQAGES; Thymosin beta-4; UniProt P62328 2-44, looked up)",Infarction size compared with other groups,2.5 mg/kg single intraperitoneal injection,no significant difference with other groups
same,The myocardium infarction size ratio,"2.5 mg/kg single intraperitoneal injection 30 min before ligation, infarction size / total size of myocardium section, mean ± spread, 2.5 mg/kg",0.151±0.030
